Experimental data as given in patent publication US11231416B2, “Virus-like particle (VLP) based small molecule-protein interaction trap” (VIB VZW, priority 2015, dated 2022).

What was measured:
PYGM = assay: Viral trapping in VLPs, MS analysis; type: binding, human; settings: all proteins (incl. low confidence identifications)
TMED9 = target: T1, TMED9 (Homo sapiens, UniProt Q9BVK6); assay: Viral trapping in VLPs, MS analysis; type: binding; settings: all proteins (incl. low confidence identifications)
T1 construct: endogenous in cells; host or cells: HEK293T

PRKCSH = target: T2, PRKCSH (Homo sapiens, UniProt P14314); assay: Viral trapping in VLPs, MS analysis; type: binding; settings: all proteins (incl. low confidence identifications)
T2 construct: endogenous in cells; host or cells: HEK293T

GINS1 = target: T3, GINS1 (Homo sapiens, UniProt Q14691); assay: Viral trapping in VLPs, MS analysis; type: binding; settings: all proteins (incl. low confidence identifications)
T3 construct: endogenous in cells; host or cells: HEK293T

SQLE = target: T4, SQLE (Homo sapiens, UniProt Q14534); assay: Viral trapping in VLPs, MS analysis; type: binding
T4 construct: endogenous in cells; host or cells: HEK293T
T4 sequence (Q14534 whole entry): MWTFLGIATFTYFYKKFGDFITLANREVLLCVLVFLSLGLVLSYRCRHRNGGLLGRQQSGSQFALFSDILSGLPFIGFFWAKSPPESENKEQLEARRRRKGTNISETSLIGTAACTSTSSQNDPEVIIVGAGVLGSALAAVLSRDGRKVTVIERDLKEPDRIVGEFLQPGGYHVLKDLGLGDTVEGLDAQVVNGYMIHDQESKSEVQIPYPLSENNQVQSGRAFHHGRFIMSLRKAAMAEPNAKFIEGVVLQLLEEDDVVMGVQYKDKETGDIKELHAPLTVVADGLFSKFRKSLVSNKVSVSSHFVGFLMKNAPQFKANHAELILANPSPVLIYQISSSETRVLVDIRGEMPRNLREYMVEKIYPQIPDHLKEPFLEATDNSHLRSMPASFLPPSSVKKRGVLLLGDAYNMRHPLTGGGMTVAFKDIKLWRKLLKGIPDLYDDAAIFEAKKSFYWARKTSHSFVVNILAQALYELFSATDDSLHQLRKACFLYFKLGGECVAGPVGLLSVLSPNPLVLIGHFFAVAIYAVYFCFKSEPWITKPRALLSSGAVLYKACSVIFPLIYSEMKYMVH
Method: (§1) To screen for simvastatin binders, cells were transfected with the GAG-eDHFR construct and then treated immediately after transfection with the MTX-PEG6-simvastatin molecule. A total of five biological repeats were performed together with four DMSO control experiments. The list of candidate interactors was obtained after removal of all proteins (including proteins identified with a single peptide) that were found in 19 control samples, the four DMSO samples and the other small molecule samples (e.g., the protein list of the five simvastatin samples was challenged against a total of 29 samples). The control samples are a number of successful Virotrap experiments using unrelated proteins to generate a list of proteins that can be considered background proteins, and that can be subtracted from the protein list obtained for the actual samples.
(§2) For each small molecule condition, two lists of proteins (annotated by their gene name) were reported. The left part of the tables (“All proteins”) contains all unique protein identifications (thus also proteins identified with a single peptide) obtained after removal of the background proteins. The right part of the tables (“Proteins identified with >1 peptide”) contains only the proteins identified with high confidence (at least two modified peptide identifications for each protein). Some recurrent proteins that were identified in multiple experiments with a single peptide are removed from this list (e.g., PYGM identified with low confidence in two repeat experiments).

UBIAD1 = target: T5, UBIAD1 (Homo sapiens, UniProt Q9Y5Z9); assay: Viral trapping in VLPs, MS analysis; type: binding
T5 construct: endogenous in cells; host or cells: HEK293T
T5 sequence (Q9Y5Z9 whole entry): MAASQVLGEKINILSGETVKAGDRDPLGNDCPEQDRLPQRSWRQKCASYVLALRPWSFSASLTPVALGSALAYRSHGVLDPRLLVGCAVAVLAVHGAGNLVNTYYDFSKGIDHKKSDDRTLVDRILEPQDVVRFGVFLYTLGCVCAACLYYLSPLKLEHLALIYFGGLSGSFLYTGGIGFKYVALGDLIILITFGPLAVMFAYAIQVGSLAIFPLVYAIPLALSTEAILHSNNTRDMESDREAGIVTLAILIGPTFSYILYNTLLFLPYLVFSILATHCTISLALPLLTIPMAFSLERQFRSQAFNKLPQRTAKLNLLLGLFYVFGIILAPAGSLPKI
Method: as §1, §2

SARM1 = target: T6, SARM1 (Homo sapiens, UniProt Q6SZW1); assay: Viral trapping in VLPs, MS analysis; type: binding
T6 construct: endogenous in cells; host or cells: HEK293T
T6 sequence (Q6SZW1 28-724): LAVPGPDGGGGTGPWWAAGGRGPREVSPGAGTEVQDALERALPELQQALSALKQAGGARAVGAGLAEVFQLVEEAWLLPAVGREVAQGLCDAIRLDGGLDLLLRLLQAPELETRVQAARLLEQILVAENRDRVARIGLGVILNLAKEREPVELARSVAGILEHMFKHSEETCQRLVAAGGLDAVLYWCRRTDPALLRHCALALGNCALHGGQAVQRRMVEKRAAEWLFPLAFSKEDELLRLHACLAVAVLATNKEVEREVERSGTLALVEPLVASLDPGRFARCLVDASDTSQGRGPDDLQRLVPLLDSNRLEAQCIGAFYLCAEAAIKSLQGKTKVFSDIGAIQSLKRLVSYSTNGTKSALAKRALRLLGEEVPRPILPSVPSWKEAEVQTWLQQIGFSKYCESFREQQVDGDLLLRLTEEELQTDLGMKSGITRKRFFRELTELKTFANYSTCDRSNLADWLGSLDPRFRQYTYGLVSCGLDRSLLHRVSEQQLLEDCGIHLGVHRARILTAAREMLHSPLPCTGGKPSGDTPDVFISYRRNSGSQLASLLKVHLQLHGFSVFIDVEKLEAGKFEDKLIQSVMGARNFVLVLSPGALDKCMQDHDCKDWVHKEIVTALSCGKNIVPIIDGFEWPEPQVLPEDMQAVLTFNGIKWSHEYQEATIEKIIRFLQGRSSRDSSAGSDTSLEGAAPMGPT

VPS37D = target: T7, VPS37D (Homo sapiens, UniProt Q86XT2); assay: Viral trapping in VLPs, MS analysis; type: binding; settings: all proteins (incl. low confidence identifications)
T7 construct: endogenous in cells; host or cells: HEK293T

FABP1 = target: T8, FABP1 (Homo sapiens, UniProt P07148); assay: Viral trapping in VLPs, MS analysis; type: binding; settings: all proteins (incl. low confidence identifications)
T8 construct: endogenous in cells; host or cells: HEK293T

CNPY2 = target: T9, CNPY2 (Homo sapiens, UniProt Q9Y2B0); assay: Viral trapping in VLPs, MS analysis; type: binding; settings: all proteins (incl. low confidence identifications)
T9 construct: endogenous in cells; host or cells: HEK293T

LAMTOR5 = target: T10, LAMTOR5 (Homo sapiens, UniProt O43504); assay: Viral trapping in VLPs, MS analysis; type: binding; settings: all proteins (incl. low confidence identifications)
T10 construct: endogenous in cells; host or cells: HEK293T

VAMP4 = target: T11, VAMP4 (Homo sapiens, UniProt O75379); assay: Viral trapping in VLPs, MS analysis; type: binding; settings: all proteins (incl. low confidence identifications)
T11 construct: endogenous in cells; host or cells: HEK293T

DDTL = assay: Viral trapping in VLPs, MS analysis; type: binding, human; settings: all proteins (incl. low confidence identifications)
LOC524129 = assay: Viral trapping in VLPs, MS analysis; type: binding; settings: all proteins (incl. low confidence identifications)
AKT3 = target: T12, AKT3 (Homo sapiens, UniProt Q9Y243); assay: Viral trapping in VLPs, MS analysis; type: binding; settings: all proteins (incl. low confidence identifications)
T12 construct: endogenous in cells; host or cells: HEK293T

SBDS = target: T13, SBDS (Homo sapiens, UniProt Q9Y3A5); assay: Viral trapping in VLPs, MS analysis; type: binding; settings: all proteins (incl. low confidence identifications)
T13 construct: endogenous in cells; host or cells: HEK293T

FHL1 = target: T14, FHL1 (Homo sapiens, UniProt Q13642); assay: Viral trapping in VLPs, MS analysis; type: binding; settings: all proteins (incl. low confidence identifications)
T14 construct: endogenous in cells; host or cells: HEK293T
T14 sequence (Q13642 whole entry): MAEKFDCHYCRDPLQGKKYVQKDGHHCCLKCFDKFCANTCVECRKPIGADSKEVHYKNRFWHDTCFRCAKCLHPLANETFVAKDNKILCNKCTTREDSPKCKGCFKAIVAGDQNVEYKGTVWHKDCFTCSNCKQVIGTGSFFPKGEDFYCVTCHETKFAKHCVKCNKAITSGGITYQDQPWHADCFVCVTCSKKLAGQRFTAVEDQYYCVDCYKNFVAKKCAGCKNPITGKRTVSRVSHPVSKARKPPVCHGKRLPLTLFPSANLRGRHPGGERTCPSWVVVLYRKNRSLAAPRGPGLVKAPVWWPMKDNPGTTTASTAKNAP

KIAA0319L = target: T15, KIAA0319L (Homo sapiens, UniProt Q8IZA0); assay: Viral trapping in VLPs, MS analysis; type: binding
T15 construct: endogenous in cells; host or cells: HEK293T
T15 sequence (Q8IZA0 whole entry): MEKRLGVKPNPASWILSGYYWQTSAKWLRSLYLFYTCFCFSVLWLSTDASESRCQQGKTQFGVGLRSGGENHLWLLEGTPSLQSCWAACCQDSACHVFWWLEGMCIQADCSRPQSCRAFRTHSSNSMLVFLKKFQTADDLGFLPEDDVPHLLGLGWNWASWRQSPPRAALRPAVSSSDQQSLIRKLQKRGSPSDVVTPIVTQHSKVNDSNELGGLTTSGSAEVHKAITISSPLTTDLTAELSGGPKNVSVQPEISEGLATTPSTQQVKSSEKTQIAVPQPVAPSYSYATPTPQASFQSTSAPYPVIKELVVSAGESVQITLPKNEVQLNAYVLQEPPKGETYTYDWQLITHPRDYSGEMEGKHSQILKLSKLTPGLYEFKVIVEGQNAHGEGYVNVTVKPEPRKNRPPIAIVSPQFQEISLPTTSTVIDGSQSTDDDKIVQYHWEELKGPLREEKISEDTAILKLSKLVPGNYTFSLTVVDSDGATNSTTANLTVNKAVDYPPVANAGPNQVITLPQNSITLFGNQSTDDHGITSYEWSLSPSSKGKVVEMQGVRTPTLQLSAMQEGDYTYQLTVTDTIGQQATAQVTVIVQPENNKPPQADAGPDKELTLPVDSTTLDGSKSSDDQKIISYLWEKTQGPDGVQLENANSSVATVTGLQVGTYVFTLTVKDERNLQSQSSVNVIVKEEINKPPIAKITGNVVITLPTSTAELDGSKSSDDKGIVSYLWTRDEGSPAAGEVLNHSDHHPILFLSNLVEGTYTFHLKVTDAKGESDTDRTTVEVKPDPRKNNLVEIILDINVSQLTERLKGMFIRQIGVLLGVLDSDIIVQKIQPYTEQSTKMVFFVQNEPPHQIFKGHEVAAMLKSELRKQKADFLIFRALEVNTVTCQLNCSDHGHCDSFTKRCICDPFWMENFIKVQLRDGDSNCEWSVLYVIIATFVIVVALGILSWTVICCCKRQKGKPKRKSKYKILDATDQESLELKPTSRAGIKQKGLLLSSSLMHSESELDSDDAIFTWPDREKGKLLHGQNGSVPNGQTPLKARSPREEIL

CTU1 = target: T16, CTU1 (Homo sapiens, UniProt Q7Z7A3); assay: Viral trapping in VLPs, MS analysis; type: binding
T16 construct: endogenous in cells; host or cells: HEK293T
T16 sequence (Q7Z7A3 whole entry): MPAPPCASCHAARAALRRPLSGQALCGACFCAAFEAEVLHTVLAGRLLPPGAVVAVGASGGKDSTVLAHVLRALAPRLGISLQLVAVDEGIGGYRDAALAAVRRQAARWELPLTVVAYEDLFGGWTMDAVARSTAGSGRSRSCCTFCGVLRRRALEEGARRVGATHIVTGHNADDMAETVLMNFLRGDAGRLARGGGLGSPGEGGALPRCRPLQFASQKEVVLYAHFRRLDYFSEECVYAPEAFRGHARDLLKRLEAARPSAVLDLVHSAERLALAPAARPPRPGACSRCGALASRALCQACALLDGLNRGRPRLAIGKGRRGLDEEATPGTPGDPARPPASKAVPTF

HMGCR = target: T17, HMGCR (Homo sapiens, UniProt P04035); assay: Viral trapping in VLPs, MS analysis; type: binding
T17 construct: endogenous in cells; host or cells: HEK293T
T17 sequence (P04035 whole entry): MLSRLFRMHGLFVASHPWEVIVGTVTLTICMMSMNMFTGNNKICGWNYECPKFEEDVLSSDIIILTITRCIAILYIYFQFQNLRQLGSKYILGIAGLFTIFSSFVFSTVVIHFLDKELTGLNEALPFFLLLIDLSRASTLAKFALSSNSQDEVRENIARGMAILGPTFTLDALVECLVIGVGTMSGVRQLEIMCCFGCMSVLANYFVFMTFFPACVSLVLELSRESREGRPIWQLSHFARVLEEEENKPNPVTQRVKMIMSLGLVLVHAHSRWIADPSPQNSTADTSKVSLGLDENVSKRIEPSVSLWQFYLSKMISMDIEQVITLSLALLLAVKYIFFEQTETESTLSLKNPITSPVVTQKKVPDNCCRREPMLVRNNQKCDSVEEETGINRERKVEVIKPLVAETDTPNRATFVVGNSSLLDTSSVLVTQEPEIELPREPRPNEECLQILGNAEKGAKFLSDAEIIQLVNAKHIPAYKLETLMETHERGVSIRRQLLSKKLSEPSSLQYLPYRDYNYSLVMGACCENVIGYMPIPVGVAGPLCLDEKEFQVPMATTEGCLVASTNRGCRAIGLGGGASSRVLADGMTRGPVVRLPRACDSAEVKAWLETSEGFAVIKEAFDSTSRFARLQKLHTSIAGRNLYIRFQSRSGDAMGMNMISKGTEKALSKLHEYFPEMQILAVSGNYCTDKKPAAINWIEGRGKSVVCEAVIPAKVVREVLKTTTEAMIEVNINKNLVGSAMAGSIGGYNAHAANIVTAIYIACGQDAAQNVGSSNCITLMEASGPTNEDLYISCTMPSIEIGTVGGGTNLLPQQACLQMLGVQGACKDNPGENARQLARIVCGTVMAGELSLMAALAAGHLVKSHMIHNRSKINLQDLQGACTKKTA

MOXD1 = target: T18, MOXD1 (Homo sapiens, UniProt Q6UVY6); assay: Viral trapping in VLPs, MS analysis; type: binding; settings: all proteins (incl. low confidence identifications)
T18 construct: endogenous in cells; host or cells: HEK293T

SLC17A1 = target: T19, SLC17A1 (Homo sapiens, UniProt Q14916); assay: Viral trapping in VLPs, MS analysis; type: binding; settings: all proteins (incl. low confidence identifications)
T19 construct: endogenous in cells; host or cells: HEK293T

RBP4 = assay: Viral trapping in VLPs, MS analysis; type: binding, human; settings: all proteins (incl. low confidence identifications)
DBI = target: T20, DBI (Homo sapiens, UniProt P07108); assay: Viral trapping in VLPs, MS analysis; type: binding; settings: all proteins (incl. low confidence identifications)
T20 construct: endogenous in cells; host or cells: HEK293T

EIF1AY = assay: Viral trapping in VLPs, MS analysis; type: binding, human; settings: all proteins (incl. low confidence identifications)
LNPEP = target: T21, LNPEP (Homo sapiens, UniProt Q9UIQ6); assay: Viral trapping in VLPs, MS analysis; type: binding; settings: all proteins (incl. low confidence identifications)
T21 construct: endogenous in cells; host or cells: HEK293T

RAB4A = target: T22, RAB4A (Homo sapiens, UniProt P20338); assay: Viral trapping in VLPs, MS analysis; type: binding; settings: all proteins (incl. low confidence identifications)
T22 construct: endogenous in cells; host or cells: HEK293T
T22 sequence (P20338 whole entry): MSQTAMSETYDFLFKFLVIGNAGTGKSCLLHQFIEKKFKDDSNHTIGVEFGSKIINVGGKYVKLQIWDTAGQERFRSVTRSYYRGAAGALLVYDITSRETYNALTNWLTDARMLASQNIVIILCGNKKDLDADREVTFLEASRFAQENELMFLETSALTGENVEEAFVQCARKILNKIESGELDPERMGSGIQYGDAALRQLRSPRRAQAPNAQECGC

GALNT1 = target: T23, GALNT1 (Homo sapiens, UniProt Q10472); assay: Viral trapping in VLPs, MS analysis; type: binding; settings: all proteins (incl. low confidence identifications)
T23 construct: endogenous in cells; host or cells: HEK293T

KRT6B = target: T24, KRT6B (Homo sapiens, UniProt P04259); assay: Viral trapping in VLPs, MS analysis; type: binding
T24 construct: endogenous in cells; host or cells: HEK293T
T24 sequence (P04259 whole entry): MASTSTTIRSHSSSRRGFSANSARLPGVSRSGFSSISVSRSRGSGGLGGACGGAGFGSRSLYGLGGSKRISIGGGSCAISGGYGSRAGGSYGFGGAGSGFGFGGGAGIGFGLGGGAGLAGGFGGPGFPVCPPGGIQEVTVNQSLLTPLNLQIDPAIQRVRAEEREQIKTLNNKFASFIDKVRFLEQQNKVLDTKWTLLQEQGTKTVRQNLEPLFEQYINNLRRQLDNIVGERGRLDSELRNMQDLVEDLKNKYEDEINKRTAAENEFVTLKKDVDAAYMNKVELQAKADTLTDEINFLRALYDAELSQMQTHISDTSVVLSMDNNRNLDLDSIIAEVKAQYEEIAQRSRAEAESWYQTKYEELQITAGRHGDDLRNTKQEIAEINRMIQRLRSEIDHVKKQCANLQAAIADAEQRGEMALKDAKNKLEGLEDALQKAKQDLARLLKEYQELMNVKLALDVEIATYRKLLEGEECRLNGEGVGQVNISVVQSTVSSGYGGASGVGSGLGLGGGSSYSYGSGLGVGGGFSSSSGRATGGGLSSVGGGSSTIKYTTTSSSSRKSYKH

SH3GL2 = target: T25, SH3GL2 (Homo sapiens, UniProt Q99962); assay: Viral trapping in VLPs, MS analysis; type: binding; settings: all proteins (incl. low confidence identifications)
T25 construct: endogenous in cells; host or cells: HEK293T

ATP6V0C = target: T26, ATP6V0C (Homo sapiens, UniProt P27449); assay: Viral trapping in VLPs, MS analysis; type: binding; settings: all proteins (incl. low confidence identifications)
T26 construct: endogenous in cells; host or cells: HEK293T

PDIA4 = target: T27, PDIA4 (Homo sapiens, UniProt P13667); assay: Viral trapping in VLPs, MS analysis; type: binding
T27 construct: endogenous in cells; host or cells: HEK293T

SLC46A1 = target: T28, SLC46A1 (Homo sapiens, UniProt Q96NT5); assay: Viral trapping in VLPs, MS analysis; type: binding; settings: all proteins (incl. low confidence identifications)
T28 construct: endogenous in cells; host or cells: HEK293T

TMED5 = target: T29, TMED5 (Homo sapiens, UniProt Q9Y3A6); assay: Viral trapping in VLPs, MS analysis; type: binding; settings: all proteins (incl. low confidence identifications)
T29 construct: endogenous in cells; host or cells: HEK293T

LOC512271 = assay: Viral trapping in VLPs, MS analysis; type: binding; settings: all proteins (incl. low confidence identifications)
HSD17B4 = target: T30, HSD17B4 (Homo sapiens, UniProt P51659); assay: Binary MASPIT assay; type: cell-based; settings: binary MASPIT assay
T30 construct: endogenous in cells; host or cells: HEK293T
T30 sequence (P51659 1-736): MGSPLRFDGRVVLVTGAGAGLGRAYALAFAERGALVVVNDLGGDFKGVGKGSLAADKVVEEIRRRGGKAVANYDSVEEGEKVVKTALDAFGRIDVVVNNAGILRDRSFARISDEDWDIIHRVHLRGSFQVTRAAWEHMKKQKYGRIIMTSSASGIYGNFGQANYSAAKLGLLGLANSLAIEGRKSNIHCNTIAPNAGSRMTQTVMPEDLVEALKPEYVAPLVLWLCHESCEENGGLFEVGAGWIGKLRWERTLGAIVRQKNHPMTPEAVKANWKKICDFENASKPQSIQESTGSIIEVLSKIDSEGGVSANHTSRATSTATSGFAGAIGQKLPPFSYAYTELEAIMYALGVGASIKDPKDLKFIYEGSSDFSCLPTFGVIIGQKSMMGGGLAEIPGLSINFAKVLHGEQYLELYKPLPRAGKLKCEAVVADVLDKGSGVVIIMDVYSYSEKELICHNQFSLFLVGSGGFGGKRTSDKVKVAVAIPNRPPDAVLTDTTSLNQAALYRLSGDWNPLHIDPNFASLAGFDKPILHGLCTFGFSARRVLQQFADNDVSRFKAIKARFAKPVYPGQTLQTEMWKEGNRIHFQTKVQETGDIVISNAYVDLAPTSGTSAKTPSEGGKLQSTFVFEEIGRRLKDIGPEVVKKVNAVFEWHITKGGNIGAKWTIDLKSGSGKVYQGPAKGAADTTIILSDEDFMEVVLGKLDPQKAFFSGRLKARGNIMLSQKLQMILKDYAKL
Method: The binding of HSD17B4 to tamoxifen was further confirmed using the MASPIT technology. The binary MASPIT assay was essentially performed as described before (Risseeuw et al., 2013). Briefly, HEK293T cells were seeded in black tissue-culture treated 96-well plates at 10.000 cells/well in 100 μl culture medium (DMEM supplemented with 10% fetal calf serum), and grown at 37° C., 8% CO2. Twenty-four hours later cells were transfected with a combination of the pCLG-eDHFR plasmid (Risseeuw et al., 2013), the pMG1-HSD17B4 construct and the pXP2d2-rPAP1-luciferase reporter (Caligiuri et al., 2006). The pMG1-HSD17B4 construct was generated by Gateway transfer of the full size HSD17B4 ORF, obtained as an entry clone in the hORFeome collection, into the Gateway compatible pMG1 prey destination vector as described earlier (Lievens et al., 2009). Twenty-four hours after transfection, cells were either left unstimulated or treated with 100 ng/ml leptin, with or without addition of MTX-PEG6-tamoxifen. Another 24 hours later, luciferase activity was assayed using the Luciferase Assay System kit (Promega).

[1] = all proteins (incl. low confidence identifications)
[2] = proteins identified with >1 peptide (high confidence)

CC1C=C2C=CC(C)C(CCC3CC(O)CC(=O)O3)C2C(OC(=O)C(C)(C)Cc2cn(CCOCCOCCOCCOCCOCCNC(=O)CCC(NC(=O)c3ccc(N(C)Cc4cnc5nc(N)nc(N)c5n4)cc3)C(=O)O)nn2)C1 (centres unmarked) [MTX-PEG6-simvastatin]
Recurrence (x/5) (PYGM): 2 x/5 | Recurrence (x/5) (TMED9): 1 x/5 | Recurrence (x/5) (PRKCSH): 1 x/5 | Recurrence (x/5) (GINS1): 1 x/5 | Recurrence (x/5) (SQLE; [1]): 4 x/5 | Recurrence (x/5) (SQLE; [2]): 3 x/5 | Recurrence (x/5) (UBIAD1; [1]): 1 x/5 | Recurrence (x/5) (UBIAD1; [2]): 1 x/5 | Recurrence (x/5) (SARM1; [1]): 3 x/5 | Recurrence (x/5) (SARM1; [2]): 3 x/5 | Recurrence (x/5) (VPS37D): 1 x/5 | Recurrence (x/5) (FABP1): 1 x/5 | Recurrence (x/5) (CNPY2): 1 x/5 | Recurrence (x/5) (LAMTOR5): 1 x/5 | Recurrence (x/5) (VAMP4): 1 x/5 | Recurrence (x/5) (DDTL): 1 x/5 | Recurrence (x/5) (LOC524129): 1 x/5 | Recurrence (x/5) (AKT3): 1 x/5 | Recurrence (x/5) (SBDS): 1 x/5 | Recurrence (x/5) (FHL1): 1 x/5 | Recurrence (x/5) (KIAA0319L; [1]): 1 x/5 | Recurrence (x/5) (KIAA0319L; [2]): 1 x/5 | Recurrence (x/5) (CTU1; [1]): 1 x/5 | Recurrence (x/5) (CTU1; [2]): 1 x/5 | Recurrence (x/5) (HMGCR; [1]): 5 x/5 | Recurrence (x/5) (HMGCR; [2]): 5 x/5 | Recurrence (x/5) (MOXD1): 1 x/5 | Recurrence (x/5) (SLC17A1): 1 x/5 | Recurrence (x/5) (RBP4): 1 x/5 | Recurrence (x/5) (DBI): 1 x/5 | Recurrence (x/5) (EIF1AY): 1 x/5 | Recurrence (x/5) (LNPEP): 1 x/5 | Recurrence (x/5) (RAB4A): 1 x/5 | Recurrence (x/5) (GALNT1): 1 x/5 | Recurrence (x/5) (KRT6B; [1]): 1 x/5 | Recurrence (x/5) (KRT6B; [2]): 1 x/5 | Recurrence (x/5) (SH3GL2): 1 x/5 | Recurrence (x/5) (ATP6V0C): 1 x/5 | Recurrence (x/5) (PDIA4; [1]): 1 x/5 | Recurrence (x/5) (PDIA4; [2]): 1 x/5 | Recurrence (x/5) (SLC46A1): 1 x/5 | Recurrence (x/5) (TMED5): 1 x/5 | Recurrence (x/5) (LOC512271): 1 x/5

CC/C(=C(\c1ccccc1)c1ccc(OCCN(C)C)cc1)c1ccccc1 [tamoxifen, reference compound]
interaction between tamoxifen and HSD17B4 (HSD17B4): confirmed
